Results from patent US12447156B2, “Treating progressive familial intrahepatic cholestasis (PFIC) with IBAT inhibitors” (ALBIREO AB, priority 2020, dated 2025).

Legend:
Assay type in all cases: in vivo, human
[1] = system: patients with PFIC with prior PEBD surgery; test: PEDFIC 1/2 post hoc subgroup: patients with prior partial external biliary diversion (PEBD)
Method: (§1) One surgical treatment option for patients with PFIC is partial external biliary diversion (PEBD), which can be used to reduce bile acid levels in patients with medically refractory pruritus. However, PEBD is not successful in all patients. […] This post hoc subgroup analysis evaluated the safety and efficacy of odevixibat in patients enrolled in the PEDFIC studies who had PEBD surgery prior to study entry.
(§2) In the double-blind PEDFIC 1 study, children with PFIC1 or PFIC2 were randomized to placebo or 40 or 120 μg/kg/day odevixibat for 24 weeks. In PEDFIC 2, an ongoing, open-label extension study, patients from PEDFIC 1 or newly enrolled patients with any PFIC subtype receive odevixibat 120 μg/kg/day. In both PEDFIC 1 and PEDFIC 2, eligible patients had elevated sBAs and significant pruritus at screening. Changes over time in sBA levels and observer-reported pruritus (range: 0-4; higher scores indicate worse symptoms), sleep parameters, and quality of life (QoL; assessed with the Pediatric Quality of Life Inventory [PedsQL]) were evaluated in the subgroup of patients from PEDFIC 1 and/or PEDFIC 2 with a medical history of PEBD surgery performed prior to study enrollment.

[2] = system: patients with PFIC; test: Pooled PEDFIC 1/2 (up to 72 weeks): serum bile acids, pruritus and sleep parameters, correlations, responders
Method: Methods: PEDFIC 1 was a randomized, double-blind study in children with PFIC1 or PFIC2; patients received either once-daily placebo, odevixibat 40 μg/kg, or odevixibat 120 μg/k g for 24 weeks. PEDFIC 2 is an ongoing, 72 week extension study in patients with any type of PFIC in which all patients receive odevixibat 120 μg/kg/day. In both PEDFIC 1 and PEDFIC 2, eligible patients had elevated serum bile acids and significant pruritus at screening. Here, patient pruritus and sleep-related data (including tiredness during the day) were included, which were evaluated twice daily by caregivers using the validated PRUCISION scale via an electronic diary. Pruritus and tiredness responses range from 0 to 4, with higher scores indicating worse symptoms; other sleep assessments include questions with Yes/No response s. Correlations between percentage change from baseline in serum bile acids and change from baseline in observer-reported diary data (pruritus, sleep characteristics) were assessed as post hoc analyses and are summarized with Pearson coefficient s (r).

[3] = system: patients with PFIC; test: Pooled PEDFIC 1/2: relationships between changes in autotaxin, pruritus and serum bile acids (weeks 25-48)
Method: Phase 3 study data of 77 patients treated with odevisibat was pooled from the PEDFIC 1 and PEDFIC 2 studies. In PEDFIC 1, patients received placebo or odevixibat 40 or 120 μg/kg/day for 24 weeks; in PEFFIC 2, patients were enrolled in an ongoing extension study, with all patients receiving 120 μg/kg/day. At the data cutoff, 77 patients had received odevixibat. The median length of odevixibat treatment was 37 weeks, with a range of 1-108 weeks. Most patients (88%) were continuing on treatment. Characteristics of patients with available data at weeks 25-48 who were included in the current analyses were generally similar to the overall study population.
Autotaxin was assessed prior to treatment and throughout PEDFIC 1 and PEDFIC 2. Caregivers evaluated patients' pruritus using the validated PRUCISION scale, where scores range from 0 to 4; higher scores indicate worse symptoms. Serum bile acid measurements were taken at all study visits.
Relationships between changes from baseline to weeks 25-48 in autotaxin, pruritus, and serum bile acid levels were assessed as post hoc analyses. Changes from baseline were summarized descriptively. Pearson coefficients and P values were calculated for correlations. Responders were defined as ≥70% reduction from baseline in serum bile acids or serum bile acids ≤70 μmol/L at last assessment up to week 48 and/or pruritus score reduction of ≥1 point from baseline based on last available monthly or 12-week interval score up to week 48.
Values are based on last assessment up to week 48. For serum bile acids, this was the average value from weeks 46 and 48 when available; otherwise, the last available assessment in the interval was used. For pruritus, last monthly score was used when available; otherwise, the score from the last 12 weeks was used. For autotaxin, the last assessment within the interval was used.

[4] = system: patients with PFIC with prior PEBD surgery; test: PEDFIC 1/2 post hoc subgroup: patients with prior partial external biliary diversion (PEBD); set-up: key: Y: sBAs ≤70 μmol/L or reduced ≥70% at last assessment; N, no
Method: as §1, §2

[5] = Patient 1 (prior PEBD, PFIC2; PEDFIC 1 placebo, PEDFIC 2 120 μg/kg/d; 42 weeks exposure)
[6] = Patient 2 (prior PEBD, PFIC1; PEDFIC 1 placebo, PEDFIC 2 120 μg/kg/d; 35 weeks exposure)
[7] = Patient 3 (prior PEBD, PFIC1; PEDFIC 1 40 μg/kg/d, PEDFIC 2 120 μg/kg/d; 44 weeks exposure)
[8] = Patient 4 (prior PEBD, PFIC1; PEDFIC 1 40 μg/kg/d, PEDFIC 2 120 μg/kg/d; 55 weeks exposure)
[9] = Patient 5 (prior PEBD, PFIC2; 120 μg/kg/d in PEDFIC 1 and 2; 53 weeks exposure)
[10] = Patient 6 (prior PEBD, PFIC2; 120 μg/kg/d in PEDFIC 1 and 2; 44 weeks exposure)
[11] = Patient 7 (prior PEBD, PFIC2; 120 μg/kg/d in PEDFIC 1 and 2; 54 weeks exposure, discontinued)
[12] = Patient 8 (prior PEBD, PFIC1; 120 μg/kg/d in PEDFIC 1 and 2; 47 weeks exposure)
[13] = Patient 9 (prior PEBD, PFIC1; PEDFIC 2 only, 120 μg/kg/d; 25 weeks exposure)
[14] = of 10 patients with prior PEBD surgery
[15] = patients analyzed in correlation analyses, N=44

SMILES: CCCCC1(CCCC)CN(c2ccccc2)c2cc(SC)c(OCC(=O)N[C@@H](C(=O)N[C@@H](CC)C(=O)O)c3ccc(O)cc3)cc2S(=O)(=O)N1 [Odevixibat, 1,1-dioxo-3,3-dibutyl-5-phenyl-7-methylthio-8-(N-{(R)-α-[N-((S)-1-carboxypropyl)carbamoyl]-4-hydroxybenzyl}carbamoylmethoxy)-2,3,4,5-tetrahydro-1,2,5-benzothiadiazepine]
- Pruritus Responder? [1, 5]: N (N, no)
- Change From Baseline in Pruritus Score ([1]; Patient 1 (prior PEBD, PFIC2; PEDFIC 1 placebo, PEDFIC 2 120 μg/kg/d; 42 weeks exposure), baseline 1.9): 0.1
- Change From Baseline in sBAs ([1]; Patient 1 (prior PEBD, PFIC2; PEDFIC 1 placebo, PEDFIC 2 120 μg/kg/d; 42 weeks exposure), baseline 172): -18 µmol/L
- Pruritus Responder? [1, 6]: N (N, no)
- Change From Baseline in Pruritus Score ([1]; Patient 2 (prior PEBD, PFIC1; PEDFIC 1 placebo, PEDFIC 2 120 μg/kg/d; 35 weeks exposure), baseline 3.8): −0.9
- Change From Baseline in sBAs ([1]; Patient 2 (prior PEBD, PFIC1; PEDFIC 1 placebo, PEDFIC 2 120 μg/kg/d; 35 weeks exposure), baseline 225): -69.5 µmol/L
- Pruritus Responder? [1, 7]: Y (≥1-point drop in pruritus score at last assessment)
- Change From Baseline in Pruritus Score ([1]; Patient 3 (prior PEBD, PFIC1; PEDFIC 1 40 μg/kg/d, PEDFIC 2 120 μg/kg/d; 44 weeks exposure), baseline 3.0): −2.1
- Change From Baseline in sBAs ([1]; Patient 3 (prior PEBD, PFIC1; PEDFIC 1 40 μg/kg/d, PEDFIC 2 120 μg/kg/d; 44 weeks exposure), baseline 193): 197 µmol/L
- Pruritus Responder? [1, 8]: Y (≥1-point drop in pruritus score at last assessment)
- Change From Baseline in Pruritus Score ([1]; Patient 4 (prior PEBD, PFIC1; PEDFIC 1 40 μg/kg/d, PEDFIC 2 120 μg/kg/d; 55 weeks exposure), baseline 3.0): −1.5
- Change From Baseline in sBAs ([1]; Patient 4 (prior PEBD, PFIC1; PEDFIC 1 40 μg/kg/d, PEDFIC 2 120 μg/kg/d; 55 weeks exposure), baseline 163): -53.5 µmol/L
- Pruritus Responder? [1, 9]: N (N, no)
- Change From Baseline in Pruritus Score ([1]; Patient 5 (prior PEBD, PFIC2; 120 μg/kg/d in PEDFIC 1 and 2; 53 weeks exposure), baseline 2.8): 0.3
- Change From Baseline in sBAs ([1]; Patient 5 (prior PEBD, PFIC2; 120 μg/kg/d in PEDFIC 1 and 2; 53 weeks exposure), baseline 156.5): -11.5 µmol/L
- Pruritus Responder? [1, 10]: N (N, no)
- Change From Baseline in Pruritus Score ([1]; Patient 6 (prior PEBD, PFIC2; 120 μg/kg/d in PEDFIC 1 and 2; 44 weeks exposure), baseline 3.0): 0.0
- Change From Baseline in sBAs ([1]; Patient 6 (prior PEBD, PFIC2; 120 μg/kg/d in PEDFIC 1 and 2; 44 weeks exposure), baseline 237): 103 µmol/L
- Pruritus Responder? [1, 11]: N (N, no)
- Change From Baseline in Pruritus Score ([1]; Patient 7 (prior PEBD, PFIC2; 120 μg/kg/d in PEDFIC 1 and 2; 54 weeks exposure, discontinued), baseline 2.9): −0.3
- Change From Baseline in sBAs ([1]; Patient 7 (prior PEBD, PFIC2; 120 μg/kg/d in PEDFIC 1 and 2; 54 weeks exposure, discontinued), baseline 208): 178 µmol/L
- Pruritus Responder? [1, 12]: Y (≥1-point drop in pruritus score at last assessment)
- Change From Baseline in Pruritus Score ([1]; Patient 8 (prior PEBD, PFIC1; 120 μg/kg/d in PEDFIC 1 and 2; 47 weeks exposure), baseline 2.0): −2.1
- Change From Baseline in sBAs ([1]; Patient 8 (prior PEBD, PFIC1; 120 μg/kg/d in PEDFIC 1 and 2; 47 weeks exposure), baseline 188.5): 61.5 µmol/L
- Pruritus Responder? [1, 13]: N (N, no)
- Change From Baseline in Pruritus Score ([1]; Patient 9 (prior PEBD, PFIC1; PEDFIC 2 only, 120 μg/kg/d; 25 weeks exposure), baseline 2.0): −0.5
- Change From Baseline in sBAs ([1]; Patient 9 (prior PEBD, PFIC1; PEDFIC 2 only, 120 μg/kg/d; 25 weeks exposure), baseline 139.5): 8.5 µmol/L
- Pruritus Responder? ([1]; Patient 10 (prior PEBD, PFIC2; PEDFIC 2 only, 120 μg/kg/d; 35 weeks exposure)): Y (≥1-point drop in pruritus score at last assessment)
- Change From Baseline in Pruritus Score ([1]; Patient 10 (prior PEBD, PFIC2; PEDFIC 2 only, 120 μg/kg/d; 35 weeks exposure), baseline 2.5): −1.5
- Change From Baseline in sBAs ([1]; Patient 10 (prior PEBD, PFIC2; PEDFIC 2 only, 120 μg/kg/d; 35 weeks exposure), baseline 79.5): -70.5 µmol/L
- patients who met criteria for pruritus response (≥1-point drop) [1, 14]: 4 patients
- patients with reductions in pruritus score [1, 14]: 7 patients
- patients with reductions in sBA levels [1, 14]: 5 patients
- patients who met criteria for sBA response (reduced by ≥70% or ≤70 μmol/L) ([1]; of 10 patients with prior PEBD surgery, last assessment): 1 patient
- patients with improved observer-reported PedsQL total scores ([1]; of the 9 prior-PEBD patients with post-baseline QoL assessments): 6 patients
- tolerability ([1]; patients with prior PEBD surgery): generally well tolerated
- patients with TEAEs ([1]; prior PEBD subgroup, 9 of 10 patients, all mild to moderate): 90%
- overall incidence of any event of diarrhea ([2]; pooled PEDFIC 1/2, 18/84 patients): 21%
- patients with any TEAE ([2]; pooled PEDFIC 1/2, 71 of 84 patients, up to 72 weeks): 85%
- TEAEs mild or moderate in severity ([2]; pooled PEDFIC 1/2, 84 patients): 90%
- serious drug-related TEAEs or deaths ([2]; pooled PEDFIC 1/2, 84 patients): No serious drug-related TEAEs or deaths occurred
- patients who met criteria for serum bile acid response ([2]; pooled PEDFIC 1/2, during odevixibat treatment (up to 72 weeks)): approximately 40%
- Serum bile acids, Change From Baseline to Weeks 49-72, Mean ([2]; pooled PEDFIC 1/2, n 32, baseline 246 μmol/L): −53% (9%)
- Tiredness score, Change From Baseline to Weeks 49-72, Mean (SE) ([2]; pooled PEDFIC 1/2, n 34, baseline 2.3): −1.2 (0.2)
- Pruritus score, Change From Baseline to Weeks 49-72, Mean (SE) ([2]; pooled PEDFIC 1/2, n 34, baseline 2.8): −1.5 (0.2)
- Number of awakenings, Change From Baseline to Weeks 49-72, Mean (SE) ([2]; pooled PEDFIC 1/2, n 34, baseline 8): −7 (3)
- Days taking medications to induce sleep, Change From Baseline to Weeks 49-72, Mean (SE) ([2]; pooled PEDFIC 1/2, n 34, baseline 24): −3 (4) %
- Days with scratching associated with bleeding, Change From Baseline to Weeks 49-72, Mean (SE) ([2]; pooled PEDFIC 1/2, n 34, baseline 38): −21 (7) %
- Days patient slept with caregiver, Change From Baseline to Weeks 49-72, Mean (SE) ([2]; pooled PEDFIC 1/2, n 34, baseline 67): −38 (8) %
- Days patient needed soothing, Change From Baseline to Weeks 49-72, Mean (SE) ([2]; pooled PEDFIC 1/2, n 34, baseline 75): −48 (9) %
- Days patient needed help falling asleep, Change From Baseline to Weeks 49-72, Mean (SE) ([2]; pooled PEDFIC 1/2, n 34, baseline 78): −55 (8) %
- patients achieving a treatment response (serum bile acid and/or pruritus criteria) ([2]; pooled PEDFIC 1/2, up to 72 weeks): approximately 60%
- tolerability ([2]; up to 72 weeks of odevixibat treatment): generally well tolerated
- Autotaxin, percentage change from baseline to weeks 25-48, mean (SE) ([3]; patients analyzed in correlation analyses, N=33): −50% (6%)
- Autotaxin, change from baseline to weeks 25-48, mean (SE) ([3]; patients analyzed in correlation analyses, N=33, last assessment up to week 48): −1696 (266) ng/ml
- Serum bile acids, change from baseline to weeks 25-48, mean (SE) [3, 15]: −140 (25) μmol/L
- Serum bile acids, percentage change from baseline to weeks 25-48, mean (SE) [3, 15]: −49% (8%)
- Pruritus score (range, 0-4), change from baseline to weeks 25-48, mean (SE) ([3]; patients analyzed in correlation analyses, N=44, PRUCISION scale): −1.4 (0.2)
- effect on autotaxin, pruritus and serum bile acids ([3]; patients with PFIC): reduced autotaxin, pruritus, and serum bile acids
- sBA Responder? [4, 5]: N
- sBA Responder? [4, 6]: N
- sBA Responder? [4, 7]: N
- sBA Responder? [4, 8]: N
- sBA Responder? [4, 9]: N
- sBA Responder? [4, 10]: N
- sBA Responder? [4, 11]: N
- sBA Responder? [4, 12]: N
- sBA Responder? [4, 13]: N
